Measurements reported in PubChem BioAssay AID2060883 (Molecular Pharmacology Branch, DTP, NCI, 2025).

Test system: 843782-103-R-J1-PDC complex spheroid viability
Test: Anticancer human tumor 843782-103-R-J1-PDC patient-derived lung adenocarcinoma cell line growth inhibition [RAS]
Settings: for IC50: curve of first compound; for viability, T/C: stronger effect = lower value
Procedure, shortened: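 Tumour cells grown as complex spheroids with HUVEC endothelial cells and mesenchymal stem cells, treated with RAS pathway inhibitor combinations. Each agent spans half-log steps from near clinical Cmax, or 10 microM where Cmax is unknown.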

[1] = second compound 0.000949 µM, first compound 0.0316 µM
[2] = second compound 0.000949 µM, first compound 0.1 µM
[3] = second compound 0.000949 µM, first compound 0.316 µM
[4] = second compound 0.000949 µM, first compound 1 µM
[5] = second compound 0.000949 µM, first compound 3.16 µM
[6] = second compound 0.000949 µM, first compound 10 µM
[7] = second compound 0.003 µM, first compound 0.0316 µM
[8] = second compound 0.003 µM, first compound 0.1 µM
[9] = second compound 0.003 µM, first compound 0.316 µM
[10] = second compound 0.003 µM, first compound 1 µM
[11] = second compound 0.003 µM, first compound 3.16 µM
[12] = second compound 0.003 µM, first compound 10 µM
[13] = second compound 0.00949 µM, first compound 0.0316 µM
[14] = second compound 0.00949 µM, first compound 0.1 µM
[15] = second compound 0.00949 µM, first compound 0.316 µM
[16] = second compound 0.00949 µM, first compound 1 µM
[17] = second compound 0.00949 µM, first compound 3.16 µM
[18] = second compound 0.00949 µM, first compound 10 µM
[19] = second compound 0.03 µM, first compound 0.0316 µM
[20] = second compound 0.03 µM, first compound 0.1 µM
[21] = second compound 0.03 µM, first compound 0.316 µM
[22] = second compound 0.03 µM, first compound 1 µM
[23] = second compound 0.03 µM, first compound 3.16 µM
[24] = second compound 0.03 µM, first compound 10 µM
[25] = second compound 0.0949 µM, first compound 0.0316 µM
[26] = second compound 0.0949 µM, first compound 0.1 µM
[27] = second compound 0.0949 µM, first compound 0.316 µM
[28] = second compound 0.0949 µM, first compound 1 µM
[29] = second compound 0.0949 µM, first compound 3.16 µM
[30] = second compound 0.0949 µM, first compound 10 µM
[31] = second compound 0.3 µM, first compound 0.0316 µM
[32] = second compound 0.3 µM, first compound 0.1 µM
[33] = second compound 0.3 µM, first compound 0.316 µM
[34] = second compound 0.3 µM, first compound 1 µM
[35] = second compound 0.3 µM, first compound 3.16 µM
[36] = second compound 0.3 µM, first compound 10 µM
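Note: viability read after seven days of compound exposure.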

Cc1nc(N2CCC3(CC2)COC(C)C3N)c(CO)nc1Sc1ccnc(N)c1Cl (stereo unspecified) + CCn1c(-c2cc(N3CCN(C)CC3)cnc2C(C)OC)c2c3cc(ccc31)-c1csc(n1)CC(NC(=O)C1CC1C)C(=O)N1CCCC(N1)C(=O)OCC(C)(C)C2
IC50 (second compound 0.000949 µM): 51.5 nM
IC50 (second compound 0.003 µM): 31.8 nM
IC50 (second compound 0.00949 µM): < 31.6 nM
IC50 (second compound 0.03 µM): < 31.6 nM
IC50 (second compound 0.0949 µM): < 31.6 nM
IC50 (second compound 0.3 µM): < 31.6 nM
viability, T/C [1]: 54.4%
viability, T/C [2]: 42%
viability, T/C [3]: 40.2%
viability, T/C [4]: 23.5%
viability, T/C [5]: 19.4%
viability, T/C [6]: 19.2%
viability, T/C [7]: 50%
viability, T/C [8]: 39.2%
viability, T/C [9]: 29.5%
viability, T/C [10]: 22.1%
viability, T/C [11]: 19.4%
viability, T/C [12]: 13.4%
viability, T/C [13]: 26.4%
viability, T/C [14]: 25.6%
viability, T/C [15]: 20%
viability, T/C [16]: 19.6%
viability, T/C [17]: 15.9%
viability, T/C [18]: 15.1%
viability, T/C [19]: 18.6%
viability, T/C [20]: 17.8%
viability, T/C [21]: 16.4%
viability, T/C [22]: 15.5%
viability, T/C [23]: 15.5%
viability, T/C [24]: 14.1%
viability, T/C [25]: 17.4%
viability, T/C [26]: 13.6%
viability, T/C [27]: 13.3%
viability, T/C [28]: 13%
viability, T/C [29]: 13.5%
viability, T/C [30]: 12.2%
viability, T/C [31]: 13.7%
viability, T/C [32]: 15.5%
viability, T/C [33]: 15.1%
viability, T/C [34]: 15.4%
viability, T/C [35]: 14%
viability, T/C [36]: 12.4%

CC(Nc1ccc2c(c1)OCCn1cc(N3C(=O)OCC3C(F)F)nc1-2)C(N)=O (stereo unspecified) + C#Cc1c(F)ccc2cc(O)cc(-c3ncc4c(N5CC6CCC(C5)N6)nc(OCC56CCCN5CC(F)C6)nc4c3F)c12
IC50 (second compound 0.0316 µM): 457 nM
IC50 (second compound 0.1 µM): 375 nM
IC50 (second compound 0.316 µM): 297 nM
IC50 (second compound 1 µM): 174 nM
IC50 (second compound 3.16 µM): 57.7 nM
IC50 (second compound 10 µM): < 31.6 nM
viability, T/C (second compound 0.0316 µM, first compound 0.0316 µM): 96.3%
viability, T/C (second compound 0.0316 µM, first compound 0.1 µM): 73.7%
viability, T/C (second compound 0.0316 µM, first compound 0.316 µM): 59.3%
viability, T/C (second compound 0.0316 µM, first compound 1 µM): 35.5%
viability, T/C (second compound 0.0316 µM, first compound 3.16 µM): 24.5%
viability, T/C (second compound 0.0316 µM, first compound 10 µM): 16.1%
viability, T/C (second compound 0.1 µM, first compound 0.0316 µM): 96.4%
viability, T/C (second compound 0.1 µM, first compound 0.1 µM): 76.6%
viability, T/C (second compound 0.1 µM, first compound 0.316 µM): 50%
viability, T/C (second compound 0.1 µM, first compound 1 µM): 36.3%
viability, T/C (second compound 0.1 µM, first compound 3.16 µM): 22.8%
viability, T/C (second compound 0.1 µM, first compound 10 µM): 15%
viability, T/C (second compound 0.316 µM, first compound 0.0316 µM): 91.2%
viability, T/C (second compound 0.316 µM, first compound 0.1 µM): 72.9%
viability, T/C (second compound 0.316 µM, first compound 0.316 µM): 46.2%
viability, T/C (second compound 0.316 µM, first compound 1 µM): 32.6%
viability, T/C (second compound 0.316 µM, first compound 3.16 µM): 23.2%
viability, T/C (second compound 0.316 µM, first compound 10 µM): 15%
viability, T/C (second compound 1 µM, first compound 0.0316 µM): 89.9%
viability, T/C (second compound 1 µM, first compound 0.1 µM): 59.5%
viability, T/C (second compound 1 µM, first compound 0.316 µM): 39.6%
viability, T/C (second compound 1 µM, first compound 1 µM): 25.1%
viability, T/C (second compound 1 µM, first compound 3.16 µM): 20%
viability, T/C (second compound 1 µM, first compound 10 µM): 10.9%
viability, T/C (second compound 3.16 µM, first compound 0.0316 µM): 63%
viability, T/C (second compound 3.16 µM, first compound 0.1 µM): 36.7%
viability, T/C (second compound 3.16 µM, first compound 0.316 µM): 26.6%
viability, T/C (second compound 3.16 µM, first compound 1 µM): 18.2%
viability, T/C (second compound 3.16 µM, first compound 3.16 µM): 12.2%
viability, T/C (second compound 3.16 µM, first compound 10 µM): 8.25%
viability, T/C (second compound 10 µM, first compound 0.0316 µM): 41.2%
viability, T/C (second compound 10 µM, first compound 0.1 µM): 22.2%
viability, T/C (second compound 10 µM, first compound 0.316 µM): 21.3%
viability, T/C (second compound 10 µM, first compound 1 µM): 15.4%
viability, T/C (second compound 10 µM, first compound 3.16 µM): 8.8%
viability, T/C (second compound 10 µM, first compound 10 µM): 3.28%

CC(Nc1ccc2c(c1)OCCn1cc(N3C(=O)OCC3C(F)F)nc1-2)C(N)=O (stereo unspecified) + CCn1c(-c2cc(N3CCN(C)CC3)cnc2C(C)OC)c2c3cc(ccc31)-c1csc(n1)CC(NC(=O)C1CC1C)C(=O)N1CCCC(N1)C(=O)OCC(C)(C)C2
IC50 (second compound 0.000949 µM): 77 nM
IC50 (second compound 0.003 µM): < 31.6 nM
IC50 (second compound 0.00949 µM): < 31.6 nM
IC50 (second compound 0.03 µM): < 31.6 nM
IC50 (second compound 0.0949 µM): < 31.6 nM
IC50 (second compound 0.3 µM): < 31.6 nM
viability, T/C [1]: 58%
viability, T/C [2]: 48.6%
viability, T/C [3]: 29.5%
viability, T/C [4]: 17.9%
viability, T/C [5]: 15.6%
viability, T/C [6]: 8.54%
viability, T/C [7]: 46.8%
viability, T/C [8]: 31.7%
viability, T/C [9]: 23.1%
viability, T/C [10]: 14.1%
viability, T/C [11]: 10.7%
viability, T/C [12]: 5.42%
viability, T/C [13]: 28%
viability, T/C [14]: 17.1%
viability, T/C [15]: 17%
viability, T/C [16]: 10.7%
viability, T/C [17]: 9.87%
viability, T/C [18]: 3.83%
viability, T/C [19]: 17.1%
viability, T/C [20]: 13.6%
viability, T/C [21]: 10.8%
viability, T/C [22]: 8.39%
viability, T/C [23]: 6.08%
viability, T/C [24]: 2.39%
viability, T/C [25]: 15.7%
viability, T/C [26]: 10.8%
viability, T/C [27]: 9.99%
viability, T/C [28]: 6.85%
viability, T/C [29]: 4.41%
viability, T/C [30]: 3.16%
viability, T/C [31]: 16.4%
viability, T/C [32]: 10.4%
viability, T/C [33]: 7.76%
viability, T/C [34]: 7.43%
viability, T/C [35]: 5.53%
viability, T/C [36]: 2.56%
